Source: patent US8383817B2, “Benztropine compounds and uses thereof” (The United States of America, as represented by the …, priority 2005, dated 2013)

Assays:
[1] = molecular target: T1, NET (Rattus norvegicus, UniProt Q9WTR4); type: binding; conditions: read-out: NET Ki; Table 2
T1 construct: rows headed: NET Ki; NET Ki

[2] = molecular target: T2, SERT (Rattus norvegicus, UniProt P31652); test: [3H]Citalopram Binding Assay, rat midbrain membranes
T2 construct: Membranes from frozen rat midbrain were homogenized; from tissue; host or cells: rat midbrain membranes

[3] = molecular target: T3, DA uptake (Rattus norvegicus, UniProt P23977); test: Dopamine Uptake Assay, [3H]dopamine in synaptosomal tissue preparation; type: biochemical
T3 construct: The synaptosomal tissue preparation was incubated in buffer in glass test tubes at 37° C; from tissue

[4] = molecular target: T4, DAT (Rattus norvegicus, UniProt P23977); test: biochemical; type: binding
T4 construct: their brains removed to an ice-cooled dish for dissection of the caudate putamen; from tissue; host or cells: rat caudate putamen homogenate

[5] = molecular target: T5, muscarinic M1 receptor (Rattus norvegicus, UniProt P08482); test: [3H]Pirenzepine Binding Assay, rat brain membranes
T5 construct: Membranes from frozen rat brains excluding cerebellum were thawed; from tissue; host or cells: rat brain (excluding cerebellum) membranes
T5 sequence (P08482 1-460): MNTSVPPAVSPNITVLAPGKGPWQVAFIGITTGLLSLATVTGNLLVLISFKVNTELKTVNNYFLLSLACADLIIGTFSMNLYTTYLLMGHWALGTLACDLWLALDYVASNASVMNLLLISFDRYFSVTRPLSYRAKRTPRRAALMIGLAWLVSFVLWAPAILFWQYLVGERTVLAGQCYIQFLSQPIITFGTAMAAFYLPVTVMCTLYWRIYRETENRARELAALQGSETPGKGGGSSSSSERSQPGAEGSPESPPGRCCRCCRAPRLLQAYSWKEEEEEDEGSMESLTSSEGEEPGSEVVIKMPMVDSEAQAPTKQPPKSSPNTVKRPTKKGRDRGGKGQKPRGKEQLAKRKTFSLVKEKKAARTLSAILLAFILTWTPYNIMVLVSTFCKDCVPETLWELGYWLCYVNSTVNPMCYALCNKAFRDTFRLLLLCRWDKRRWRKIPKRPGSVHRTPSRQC

[6] = Model For Determining Increase in Attention; type: in vivo, rat; conditions: rats, five-hole chamber, 40 min session, FIG. 4B
Experimental: Model For Determining Increase in Attention. Rats were trained during daily sessions in a chamber which contained five holes along one wall. When a light came on behind one of the holes, the rat had 5 sec to respond by putting its nose in the hole. If it did this, a food pellet was dispensed. Lights came on for one second randomly in time. Each tenth “correct” response produced a food pellet. The rat had to continuously monitor (attend to) the lights to perform well. The results were measured and illustrated in FIG. 4A. […] The short diagonal marks on the line indicate the occasions on which food pellets were delivered.
Rats were administered a dose of a compound of Formula III, in which R^1 is methyl and R^2 and R^3 are each fluoro. The same task was applied and the number of correct and incorrect responses was measured. The results are depicted in FIG. 4B.

[7] = Model For Reducing Effect of Nicotine (nicotine discrimination); type: in vivo, rat; conditions: rats; dose 1.0 mg/kg; nicotine only control 50%
Excerpt: Model For Reducing Effect of Nicotine. Food-deprived rats were trained to press one lever for a food pellet after nicotine administration and a second lever after vehicle administration. Pellets of food were delivered intermittently, so that every twentieth response produced food. Using this procedure, the only cue for the rat regarding which lever occasionally pays off with a food pellet, is the subjective effect of the nicotine. When the rats were accurately and reliably identifying the nicotine injections (approximately all of its responses on the lever that occasionally pays off after nicotine or saline), testing began. The rats were pretreated with a compound of Formula III before nicotine injection, and the experiment progressed as described above, except responses on either lever intermittently produced food. A 50% effective nicotine dose was reduced to low levels of effectiveness upon administration of a compound of Formula III.

[8] = Cocaine Discrimination Assay; type: in vivo, rat; conditions: rats trained to discriminate IP 10 mg/kg cocaine from saline; 80% or higher = full substitution; FIG. 1

T2 sequence (P31652 whole entry): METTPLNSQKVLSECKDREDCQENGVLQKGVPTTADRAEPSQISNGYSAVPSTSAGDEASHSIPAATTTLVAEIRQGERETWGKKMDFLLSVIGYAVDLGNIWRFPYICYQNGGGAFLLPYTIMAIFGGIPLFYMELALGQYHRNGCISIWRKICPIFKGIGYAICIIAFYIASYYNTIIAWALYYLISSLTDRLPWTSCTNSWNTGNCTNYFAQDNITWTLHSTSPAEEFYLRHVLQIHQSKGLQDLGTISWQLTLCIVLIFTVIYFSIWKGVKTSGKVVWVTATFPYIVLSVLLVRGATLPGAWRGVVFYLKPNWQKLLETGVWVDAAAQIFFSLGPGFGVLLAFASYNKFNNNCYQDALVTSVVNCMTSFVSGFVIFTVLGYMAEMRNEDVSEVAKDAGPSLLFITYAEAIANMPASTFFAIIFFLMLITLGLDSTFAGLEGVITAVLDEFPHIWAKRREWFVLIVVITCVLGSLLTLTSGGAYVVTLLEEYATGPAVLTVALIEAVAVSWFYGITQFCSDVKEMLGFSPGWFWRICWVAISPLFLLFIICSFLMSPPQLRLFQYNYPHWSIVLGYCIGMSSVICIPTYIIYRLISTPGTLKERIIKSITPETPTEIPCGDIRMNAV
T4 sequence (P23977 whole entry): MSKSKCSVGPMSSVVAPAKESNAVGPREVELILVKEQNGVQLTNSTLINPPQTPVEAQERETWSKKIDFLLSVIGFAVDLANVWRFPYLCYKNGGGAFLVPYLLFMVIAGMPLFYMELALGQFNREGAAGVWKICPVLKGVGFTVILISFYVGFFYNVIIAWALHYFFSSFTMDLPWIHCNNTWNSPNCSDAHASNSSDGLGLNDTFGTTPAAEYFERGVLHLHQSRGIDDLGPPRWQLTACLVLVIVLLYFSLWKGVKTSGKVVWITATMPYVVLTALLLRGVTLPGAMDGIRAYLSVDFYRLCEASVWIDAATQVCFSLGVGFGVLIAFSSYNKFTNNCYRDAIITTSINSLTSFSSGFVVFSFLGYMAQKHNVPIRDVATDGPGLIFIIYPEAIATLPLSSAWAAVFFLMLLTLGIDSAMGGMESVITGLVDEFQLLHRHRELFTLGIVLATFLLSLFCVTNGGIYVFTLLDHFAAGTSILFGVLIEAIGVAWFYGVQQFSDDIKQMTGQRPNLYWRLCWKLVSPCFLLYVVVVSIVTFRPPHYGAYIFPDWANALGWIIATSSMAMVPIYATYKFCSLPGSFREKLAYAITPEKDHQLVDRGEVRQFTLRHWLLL
T3 sequence (P23977 whole entry): as above

SMILES: COC(=O)[C@@H]1[C@@H](OC(c2ccc(Cl)cc2)c2ccc(Cl)cc2)C[C@H]2CC[C@@H]1N2C [Compound S-14]
- Ki [1]: 2150 ± 325 nM
- Ki [2]: 528 ± 39 nM
- IC50 [3]: 2.46 ± 0.2 nM
- Ki [4]: 12.6 ± 0.4 nM
- Ki [5]: 382 ± 37 nM

SMILES: CCOC(=O)[C@@H]1[C@@H](OC(c2ccc(Cl)cc2)c2ccc(Cl)cc2)C[C@H]2CC[C@@H]1N2C [Compound S-15, S-(+)-2β-Carboethoxy-3α-[bis(4-chlorophenyl)methoxy]tropane]
- Ki [1]: 3350 ± 154 nM
- Ki [2]: 1560 ± 91 nM
- IC50 [3]: 1.52 ± 0.2 nM
- Ki [4]: 14.6 ± 0.39 nM
- Ki [5]: 3060 ± 150 nM

SMILES: CN1[C@@H]2CC[C@@H]1CC(OC(c1ccc(F)cc1)c1ccc(F)cc1)C2 (stereo partly shown) [AHN 1-055]
- Number of correct responses (attention to brief light stimuli) [6]: far greater than before treatment
- Effect (of a 50% effective nicotine dose after pretreatment) [7]: 7.65%
- Substitution for cocaine (cocaine-appropriate responding) [8]: did not fully substitute for cocaine
